According to patent publication US7265227B2, “Piperidine derivatives useful as modulators of chemokine receptor activity” (AstraZeneca AB, priority 2001, dated 2007):

Legend:
[1] = tested on: eotaxin mediated human eosinophil chemotaxis; assay: Human eosinophil chemotaxis; format: cell-based; settings: human eosinophils from peripheral blood; eotaxin 0.1 to 100 nM; 1 hr at 37° C.
Procedure: Human Eosinophil Chemotaxis
Human eosinophils were isolated from EDTA anticoagulated peripheral blood as previously described (Hansel et al., J. Immunol. Methods, 1991, 145, 105-110). The cells were resuspended at 10×10^6 ml^−1 in RPMI containing 200 IU/ml penicillin, 200 μg/ml streptomycin sulfate and supplemented with 10% HIFCS, at room temperature.
Eosinophils (700 μl) were pre-incubated for 15 mins at 37° C. with 7 μl of either vehicle or compound (100× required final concentration in 10% DMSO). The chemotaxis plate (ChemoTx, 3μ, pore, Neuroprobe) was loaded by adding 28 μl of a concentration of eotaxin (0.1 to 100 nM) containing a concentration of a compound according to the Examples or solvent to the lower wells of the chemotaxis plate. The filter was then placed over the wells and 25 μl of eosinophil suspension were added to the top of the filter. The plate was incubated for 1 hr at 37° C. in a humidified incubator with a 95% air/5% CO2 atmosphere to allow chemotaxis.
The medium, containing cells that had not migrated, was carefully aspirated from above the filter and discarded. The filter was washed once with phosphate buffered saline (PBS) containing 5 mM EDTA to remove any adherent cells. […] The number of eosinophils migrating was quantified according to the method of Strath et al., J. Immunol. […]

H1 = target: T1, H1 (Cavia porcellus, UniProt P31389); assay: Guinea-pig isolated trachea (histamine concentration effect curves); settings: guinea-pig tracheal rings; histamine E/[A] curve after 60 minutes incubation with test compound
T1 construct: the trachea was cut into six ring segments each three cartilage bands wide and then suspended in 20 ml organ baths; from tissue; host or cells: guinea-pig isolated trachea (Dunkin-Hartley)
T1 sequence (P31389 whole entry): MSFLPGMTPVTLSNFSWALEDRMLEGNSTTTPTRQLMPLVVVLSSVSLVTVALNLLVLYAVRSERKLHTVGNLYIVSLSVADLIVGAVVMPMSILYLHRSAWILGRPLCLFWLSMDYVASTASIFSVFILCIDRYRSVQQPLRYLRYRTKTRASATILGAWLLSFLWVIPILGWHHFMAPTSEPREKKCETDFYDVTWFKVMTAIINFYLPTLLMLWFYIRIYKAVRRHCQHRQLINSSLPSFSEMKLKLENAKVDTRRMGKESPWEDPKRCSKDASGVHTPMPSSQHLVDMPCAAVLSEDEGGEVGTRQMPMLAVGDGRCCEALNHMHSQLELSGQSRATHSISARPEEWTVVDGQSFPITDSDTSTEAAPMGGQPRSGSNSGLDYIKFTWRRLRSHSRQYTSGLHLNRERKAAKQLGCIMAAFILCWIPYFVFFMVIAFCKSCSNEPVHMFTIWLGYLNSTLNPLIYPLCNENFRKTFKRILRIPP
Procedure: Guinea-pig Isolated Trachea
(See for example, Harrison, R. W. S., Carswell, H. & Young, J. M. (1984) European J. Pharmacol., 106, 405-409.)
Male albino Dunkin-Hartley guinea-pigs (250 g) were killed by cervical dislocation and the whole trachea removed. After clearing the adherent connective tissue, the trachea was cut into six ring segments each three cartilage bands wide and then suspended in 20 ml organ baths containing Krebs-Henseleit solution of the following composition (MM): NaCl 117.6, NaH2PO4 0.9, NaHCO3 25.0, MgSO4 1.2, KCl 5.4, CaCl2 2.6 and glucose 11.1. The buffer was maintained at 37° C. and gassed with 5% CO2 in oxygen. Indomethacin (2.8 μM) was added to the Krebs solution to prevent development of smooth muscle tone due to the synthesis of cyclo-oxygenase products. […] Changes in isometric force were recorded on 2-channel Sekonic flat bed chart recorders. […]
Contraction responses were recorded as a percentage of the first curve maximum. […]
Experimental E/[A] curve data were analysed for the purposes of estimating the potencies (p[A50] values) of histamine in the absence and presence of the test compound. Affinity (pA2) values of test compounds were subsequently calculated using the following equation: log(r−1)=log[B]+pA2 where r=[A]50 in presence of test compound/[A]50 in absence of antagonist and [B] is the concentration of test compound.

Row | melting point [°C] | H1 antagonism (H1) | Compound | antagonism of the eotaxin mediated human eosinophil chemotaxis [1]
1 | 179.6 to 180.3 | H1 antagonist | Cc1ccc(S(=O)(=O)NC(=O)NCCN2CCC(Oc3ccc(Cl)c(Cl)c3)CC2)cc1 [Example 1, N-[[[2-[4-(3,4-dichlorophenoxy)-1-piperidinyl]ethyl]amino]carbonyl]-4-methyl-benzenesulfonamide] | antagonist
2 | 93 to 106 |  | O=C(NS(=O)(=O)NCCCN1CCC(Oc2ccc(Cl)c(Cl)c2)CC1)c1ccccc1 [Example 18, N-benzoyl-N′-[3-[4-(3,4-dichlorophenoxy)-1-piperidinyl]propyl]-sulfamide] | 
3 | 237 to 239 |  | O=C(NS(=O)(=O)CCN1CCC(Oc2ccc(Cl)c(Cl)c2)CC1)c1ccccc1Cl [Example 19, N-(2-Chlorobenzoyl)-4-(3,4-dichlorophenoxy)-1-piperidineethanesulfonamide] | 
4 | 177 to 179 |  | Cc1ccc(S(=O)(=O)NC(=O)CCN2CCC(Oc3ccc(Cl)c(Cl)c3)CC2)cc1 [Example 20, N-[3-[4-(3,4-dichlorophenoxy)-1-piperidinyl]-1-oxopropyl]4-methyl-benzenesulfonamide] | 
